Reference: PubChem BioAssay AID2060883 (Molecular Pharmacology Branch, DTP, NCI, 2025)
Blank lines part the entries; values can stand above or below the compound they belong to.

Test system: 843782-103-R-J1-PDC complex spheroid viability
Assay: Anticancer human tumor 843782-103-R-J1-PDC patient-derived lung adenocarcinoma cell line growth inhibition [RAS]
Conditions: for IC50: curve of first compound; for viability, T/C: stronger effect = lower value
How it was run: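 Tumour cells grown as complex spheroids with HUVEC endothelial cells and mesenchymal stem cells, treated with RAS pathway inhibitor combinations. Each agent spans half-log steps from near clinical Cmax, or 10 microM where Cmax is unknown.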

[1] = second compound 0.00316 µM, first compound 0.0316 µM
[2] = second compound 0.00316 µM, first compound 0.1 µM
[3] = second compound 0.00316 µM, first compound 0.316 µM
[4] = second compound 0.00316 µM, first compound 1 µM
[5] = second compound 0.00316 µM, first compound 3.16 µM
[6] = second compound 0.00316 µM, first compound 10 µM
[7] = second compound 0.01 µM, first compound 0.0316 µM
[8] = second compound 0.01 µM, first compound 0.1 µM
[9] = second compound 0.01 µM, first compound 0.316 µM
[10] = second compound 0.01 µM, first compound 1 µM
[11] = second compound 0.01 µM, first compound 3.16 µM
[12] = second compound 0.01 µM, first compound 10 µM
[13] = second compound 0.0316 µM, first compound 0.0316 µM
[14] = second compound 0.0316 µM, first compound 0.1 µM
[15] = second compound 0.0316 µM, first compound 0.316 µM
[16] = second compound 0.0316 µM, first compound 1 µM
[17] = second compound 0.0316 µM, first compound 3.16 µM
[18] = second compound 0.0316 µM, first compound 10 µM
[19] = second compound 0.1 µM, first compound 0.0316 µM
[20] = second compound 0.1 µM, first compound 0.1 µM
[21] = second compound 0.1 µM, first compound 0.316 µM
[22] = second compound 0.1 µM, first compound 1 µM
[23] = second compound 0.1 µM, first compound 3.16 µM
[24] = second compound 0.1 µM, first compound 10 µM
[25] = second compound 0.316 µM, first compound 0.0316 µM
[26] = second compound 0.316 µM, first compound 0.1 µM
[27] = second compound 0.316 µM, first compound 0.316 µM
[28] = second compound 0.316 µM, first compound 1 µM
[29] = second compound 0.316 µM, first compound 3.16 µM
[30] = second compound 0.316 µM, first compound 10 µM
[31] = second compound 1 µM, first compound 0.0316 µM
[32] = second compound 1 µM, first compound 0.1 µM
[33] = second compound 1 µM, first compound 0.316 µM
[34] = second compound 1 µM, first compound 1 µM
[35] = second compound 1 µM, first compound 3.16 µM
[36] = second compound 1 µM, first compound 10 µM
[37] = second compound 0.000949 µM, first compound 0.0316 µM
[38] = second compound 0.000949 µM, first compound 0.1 µM
[39] = second compound 0.000949 µM, first compound 0.316 µM
[40] = second compound 0.000949 µM, first compound 1 µM
[41] = second compound 0.000949 µM, first compound 3.16 µM
[42] = second compound 0.000949 µM, first compound 10 µM
[43] = second compound 0.003 µM, first compound 0.0316 µM
[44] = second compound 0.003 µM, first compound 0.1 µM
[45] = second compound 0.003 µM, first compound 0.316 µM
[46] = second compound 0.003 µM, first compound 1 µM
[47] = second compound 0.003 µM, first compound 3.16 µM
[48] = second compound 0.003 µM, first compound 10 µM
[49] = second compound 0.00949 µM, first compound 0.0316 µM
[50] = second compound 0.00949 µM, first compound 0.1 µM
[51] = second compound 0.00949 µM, first compound 0.316 µM
[52] = second compound 0.00949 µM, first compound 1 µM
[53] = second compound 0.00949 µM, first compound 3.16 µM
[54] = second compound 0.00949 µM, first compound 10 µM
[55] = second compound 0.03 µM, first compound 0.0316 µM
[56] = second compound 0.03 µM, first compound 0.1 µM
[57] = second compound 0.03 µM, first compound 0.316 µM
[58] = second compound 0.03 µM, first compound 1 µM
[59] = second compound 0.03 µM, first compound 3.16 µM
[60] = second compound 0.03 µM, first compound 10 µM
[61] = second compound 0.0949 µM, first compound 0.0316 µM
[62] = second compound 0.0949 µM, first compound 0.1 µM
[63] = second compound 0.0949 µM, first compound 0.316 µM
[64] = second compound 0.0949 µM, first compound 1 µM
[65] = second compound 0.0949 µM, first compound 3.16 µM
[66] = second compound 0.0949 µM, first compound 10 µM
[67] = second compound 0.3 µM, first compound 0.0316 µM
[68] = second compound 0.3 µM, first compound 0.1 µM
[69] = second compound 0.3 µM, first compound 0.316 µM
[70] = second compound 0.3 µM, first compound 1 µM
[71] = second compound 0.3 µM, first compound 3.16 µM
[72] = second compound 0.3 µM, first compound 10 µM
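Also: viability read after seven days of compound exposure.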

IC50 (second compound 0.00316 µM): 147 nM
IC50 (second compound 0.01 µM): 152 nM
IC50 (second compound 0.0316 µM): 96.4 nM
IC50 (second compound 0.1 µM): 126 nM
IC50 (second compound 0.316 µM): 140 nM
IC50 (second compound 1 µM): 138 nM
SMILES: CC1(O)CCCC1n1c(=O)c(C(F)F)cc2cnc(NC3CCN(S(C)(=O)=O)CC3)nc21 (stereo not drawn) + C=CC(=O)N1CCN(c2nc(OCC3CCCN3C)nc3c(F)c(-c4nc(N)cc(C)c4C(F)(F)F)c(Cl)cc23)C(C)C1
viability, T/C [1]: 84.9%
viability, T/C [2]: 61.6%
viability, T/C [3]: 27.7%
viability, T/C [4]: 24.3%
viability, T/C [5]: 24.2%
viability, T/C [6]: 2.56%
viability, T/C [7]: 81.2%
viability, T/C [8]: 61.4%
viability, T/C [9]: 28.2%
viability, T/C [10]: 29.2%
viability, T/C [11]: 21.7%
viability, T/C [12]: 3.18%
viability, T/C [13]: 75.9%
viability, T/C [14]: 49.9%
viability, T/C [15]: 24%
viability, T/C [16]: 27.5%
viability, T/C [17]: 19.6%
viability, T/C [18]: 2.81%
viability, T/C [19]: 78.7%
viability, T/C [20]: 59.2%
viability, T/C [21]: 24.4%
viability, T/C [22]: 27.2%
viability, T/C [23]: 23%
viability, T/C [24]: 2.61%
viability, T/C [25]: 86%
viability, T/C [26]: 58.8%
viability, T/C [27]: 26.2%
viability, T/C [28]: 28.5%
viability, T/C [29]: 25.2%
viability, T/C [30]: 2.69%
viability, T/C [31]: 84.1%
viability, T/C [32]: 54.1%
viability, T/C [33]: 33.1%
viability, T/C [34]: 25.1%
viability, T/C [35]: 17.2%
viability, T/C [36]: 2.07%

IC50 (second compound 0.00316 µM): 129 nM
IC50 (second compound 0.01 µM): 93.6 nM
IC50 (second compound 0.0316 µM): 96.2 nM
IC50 (second compound 0.1 µM): 133 nM
IC50 (second compound 0.316 µM): 114 nM
IC50 (second compound 1 µM): 118 nM
SMILES: CC(Nc1ccc2c(c1)OCCn1cc(N3C(=O)OCC3C(F)F)nc1-2)C(N)=O (stereo not drawn) + C=CC(=O)N1CCN(c2nc(OCC3CCCN3C)nc3c(F)c(-c4nc(N)cc(C)c4C(F)(F)F)c(Cl)cc23)C(C)C1
viability, T/C [1]: 78.7%
viability, T/C [2]: 51.4%
viability, T/C [3]: 38%
viability, T/C [4]: 24.7%
viability, T/C [5]: 17.9%
viability, T/C [6]: 9.53%
viability, T/C [7]: 69%
viability, T/C [8]: 49.3%
viability, T/C [9]: 32.3%
viability, T/C [10]: 25.1%
viability, T/C [11]: 19.7%
viability, T/C [12]: 10.9%
viability, T/C [13]: 69.3%
viability, T/C [14]: 49.5%
viability, T/C [15]: 33.6%
viability, T/C [16]: 23.1%
viability, T/C [17]: 20.4%
viability, T/C [18]: 9.06%
viability, T/C [19]: 67.8%
viability, T/C [20]: 57.8%
viability, T/C [21]: 30%
viability, T/C [22]: 23.1%
viability, T/C [23]: 15.4%
viability, T/C [24]: 10.2%
viability, T/C [25]: 65.7%
viability, T/C [26]: 54.2%
viability, T/C [27]: 33.5%
viability, T/C [28]: 24.3%
viability, T/C [29]: 17.4%
viability, T/C [30]: 8.73%
viability, T/C [31]: 74.3%
viability, T/C [32]: 45.4%
viability, T/C [33]: 40.6%
viability, T/C [34]: 26.5%
viability, T/C [35]: 17.9%
viability, T/C [36]: 8.86%

IC50 (second compound 0.000949 µM): 59 nM
IC50 (second compound 0.003 µM): 77.4 nM
IC50 (second compound 0.00949 µM): 71.8 nM
IC50 (second compound 0.03 µM): 62.4 nM
IC50 (second compound 0.0949 µM): 73.9 nM
IC50 (second compound 0.3 µM): 59.5 nM
SMILES: CC1(O)CCCC1n1c(=O)c(C(F)F)cc2cnc(NC3CCN(S(C)(=O)=O)CC3)nc21 (stereo not drawn) + CCn1c(-c2cccnc2C(C)OC)c2c3cc(ccc31)N1CCOC(CC(NC(=O)C(C(C)C)N(C)C(=O)C3(F)CCN(C(=O)C#CC(C)(C)N(C)C)CC3)C(=O)N3CCCC(N3)C(=O)OCC(C)(C)C2)C1
viability, T/C [37]: 60.3%
viability, T/C [38]: 41.9%
viability, T/C [39]: 26.5%
viability, T/C [40]: 18.6%
viability, T/C [41]: 19%
viability, T/C [42]: 2.09%
viability, T/C [43]: 64.3%
viability, T/C [44]: 48.8%
viability, T/C [45]: 24.5%
viability, T/C [46]: 22.2%
viability, T/C [47]: 14.9%
viability, T/C [48]: 2.67%
viability, T/C [49]: 61.6%
viability, T/C [50]: 43.5%
viability, T/C [51]: 32.4%
viability, T/C [52]: 23.2%
viability, T/C [53]: 15.3%
viability, T/C [54]: 2.34%
viability, T/C [55]: 58.2%
viability, T/C [56]: 45.9%
viability, T/C [57]: 28.3%
viability, T/C [58]: 24.2%
viability, T/C [59]: 15.5%
viability, T/C [60]: 4.11%
viability, T/C [61]: 60.5%
viability, T/C [62]: 50.1%
viability, T/C [63]: 25.9%
viability, T/C [64]: 24.4%
viability, T/C [65]: 16.4%
viability, T/C [66]: 2.24%
viability, T/C [67]: 60.5%
viability, T/C [68]: 43.2%
viability, T/C [69]: 21.9%
viability, T/C [70]: 23%
viability, T/C [71]: 19.4%
viability, T/C [72]: 1.76%

IC50 (second compound 0.000949 µM): 1020 nM
IC50 (second compound 0.003 µM): 754 nM
IC50 (second compound 0.00949 µM): 1040 nM
IC50 (second compound 0.03 µM): 1070 nM
IC50 (second compound 0.0949 µM): 768 nM
IC50 (second compound 0.3 µM): 883 nM
SMILES: CCC(CC)c1cc(NC2CCC(N)C2)n2nccc2n1 (stereo not drawn) + CCn1c(-c2cccnc2C(C)OC)c2c3cc(ccc31)N1CCOC(CC(NC(=O)C(C(C)C)N(C)C(=O)C3(F)CCN(C(=O)C#CC(C)(C)N(C)C)CC3)C(=O)N3CCCC(N3)C(=O)OCC(C)(C)C2)C1
viability, T/C [37]: 70.7%
viability, T/C [38]: 66.5%
viability, T/C [39]: 73.8%
viability, T/C [40]: 50.8%
viability, T/C [41]: 1.84%
viability, T/C [42]: 0.99%
viability, T/C [43]: 70.5%
viability, T/C [44]: 87%
viability, T/C [45]: 67.8%
viability, T/C [46]: 44.1%
viability, T/C [47]: 1.8%
viability, T/C [48]: 0.91%
viability, T/C [49]: 73.5%
viability, T/C [50]: 73.7%
viability, T/C [51]: 78.1%
viability, T/C [52]: 51.9%
viability, T/C [53]: 3.01%
viability, T/C [54]: 1.66%
viability, T/C [55]: 78.4%
viability, T/C [56]: 82.8%
viability, T/C [57]: 71.9%
viability, T/C [58]: 53.5%
viability, T/C [59]: 1.5%
viability, T/C [60]: 1.09%
viability, T/C [61]: 74.6%
viability, T/C [62]: 67.4%
viability, T/C [63]: 65.7%
viability, T/C [64]: 44.8%
viability, T/C [65]: 1.32%
viability, T/C [66]: 0.88%
viability, T/C [67]: 77.3%
viability, T/C [68]: 67.2%
viability, T/C [69]: 61.8%
viability, T/C [70]: 48.4%
viability, T/C [71]: 1.4%
viability, T/C [72]: 0.57%
